Assays:
Human β2 adrenoceptor = molecular target: T1, Human β2 adrenoceptor (Homo sapiens, UniProt P07550); experiment: β2 adrenoceptor radioligand binding assay
T1 construct: purchased Perkin Elmer
In short: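 Human β2 receptor membranes incubated 1 h at room temperature with 0.3 nM [125I]cyanopindolol and compound in pH 7.4 HEPES buffer (0.5% DMSO); 2 μM s-propranolol defined non-specific binding. Bound label counted after filtration; IC50 from competition curves, converted to Ki via Cheng–Prusoff.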

Human M3 receptor = molecular target: T2, Human M3 receptor (Homo sapiens, UniProt P20309); experiment: biochemical; format: binding; details: read-out: M3 Range
T2 construct: purchased Perkin Elmer
T2 sequence (P20309 whole entry): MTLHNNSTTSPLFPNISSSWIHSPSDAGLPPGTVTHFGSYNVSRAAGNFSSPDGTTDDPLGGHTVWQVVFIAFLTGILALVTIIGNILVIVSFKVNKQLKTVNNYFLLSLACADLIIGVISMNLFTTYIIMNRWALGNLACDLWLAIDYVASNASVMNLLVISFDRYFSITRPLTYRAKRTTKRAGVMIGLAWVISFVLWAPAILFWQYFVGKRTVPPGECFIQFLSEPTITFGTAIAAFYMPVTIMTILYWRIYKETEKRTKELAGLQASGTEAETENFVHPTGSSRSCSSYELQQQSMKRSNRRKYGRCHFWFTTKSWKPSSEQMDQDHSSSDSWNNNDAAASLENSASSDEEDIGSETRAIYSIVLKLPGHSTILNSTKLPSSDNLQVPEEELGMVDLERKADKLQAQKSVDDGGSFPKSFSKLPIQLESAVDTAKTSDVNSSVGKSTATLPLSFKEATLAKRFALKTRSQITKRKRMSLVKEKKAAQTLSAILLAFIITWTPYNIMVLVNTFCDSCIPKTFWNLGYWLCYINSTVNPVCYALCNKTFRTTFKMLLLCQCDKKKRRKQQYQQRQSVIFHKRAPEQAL

T1 sequence (P07550 whole entry): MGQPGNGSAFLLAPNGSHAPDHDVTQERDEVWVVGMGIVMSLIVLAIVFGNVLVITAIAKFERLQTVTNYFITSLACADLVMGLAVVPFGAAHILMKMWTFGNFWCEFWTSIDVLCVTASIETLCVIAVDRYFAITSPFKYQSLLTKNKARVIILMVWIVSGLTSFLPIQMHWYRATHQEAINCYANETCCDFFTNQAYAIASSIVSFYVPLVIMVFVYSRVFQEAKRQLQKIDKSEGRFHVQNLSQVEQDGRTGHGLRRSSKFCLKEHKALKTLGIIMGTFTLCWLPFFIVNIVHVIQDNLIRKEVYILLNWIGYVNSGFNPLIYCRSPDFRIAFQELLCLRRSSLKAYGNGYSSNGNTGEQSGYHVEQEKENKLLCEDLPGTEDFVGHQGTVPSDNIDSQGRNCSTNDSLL

Row | Structure (SMILES) | IC50 (Human β2 adrenoceptor) | IC50 (Human M3 receptor)
1 | COc1cc(C(=O)NCc2ncc(-c3cccc([C@](O)(C(=O)OCC4CCN(Cc5ccccc5)CC4)c4ccccc4)c3)cn2)ccc1CNC[C@H](O)c1ccc(O)c2[nH]c(=O)ccc12 [Compound 4E, (1-Benzylpiperidin-4-yl)methyl (S)-2-hydroxy-2-(3-(2-((4-((((R)-2-hydroxy-2-(8-hydroxy-2-oxo-1,2-dihydroquinolin-5-yl)ethyl)amino)methyl)-3-methoxybenzamido)methyl)pyrimidin-5-yl)phenyl)-2-phenylacetate] | 0.3 to 3 nM | 0.3 to 3 nM
2 | COc1cc(C(=O)NCc2nn(C)cc2-c2cccc([C@](O)(C(=O)OCC3CCN(Cc4ccccc4)CC3)c3ccccc3)c2)ccc1CNC[C@H](O)c1ccc(O)c2[nH]c(=O)ccc12 [Compound 4F, (1-Benzylpiperidin-4-yl)methyl (S)-2-hydroxy-2-(3-(3-((4-((((R)-2-hydroxy-2-(8-hydroxy-2-oxo-1,2-dihydroquinolin-5-yl)ethyl)amino)methyl)-3-methoxybenzamido)methyl)-1-methyl-1H-pyrazol-4-yl)phenyl)-2-phenylacetate] | 0.3 to 3 nM | 0.3 to 3 nM
3 | COc1cc(C(=O)NCc2cncc(-c3cccc([C@](O)(C(=O)OCC4CCN(Cc5ccccc5)CC4)c4ccccc4)c3)n2)ccc1CNC[C@H](O)c1ccc(O)c2[nH]c(=O)ccc12 [Compound 4G, (1-Benzylpiperidin-4-yl)methyl (S)-2-hydroxy-2-(3-(6-((4-((((R)-2-hydroxy-2-(8-hydroxy-2-oxo-1,2-dihydroquinolin-5-yl)ethyl)amino)methyl)-3-methoxybenzamido)methyl)pyrazin-2-yl)phenyl)-2-phenylacetate] | < 0.3 nM | 0.3 to 3 nM
4 | COc1cc(C(=O)NCc2cnc(-c3cccc([C@](O)(C(=O)OCC4CCN(Cc5ccccc5)CC4)c4ccccc4)c3)cn2)ccc1CNC[C@H](O)c1ccc(O)c2[nH]c(=O)ccc12 [Compound 4H, (1-Benzylpiperidin-4-yl)methyl (S)-2-hydroxy-2-(3-(5-((4-((((R)-2-hydroxy-2-(8-hydroxy-2-oxo-1,2-dihydroquinolin-5-yl)ethyl)amino)methyl)-3-methoxybenzamido)methyl)pyrazin-2-yl)phenyl)-2-phenylacetate] | < 0.3 nM | 0.3 to 3 nM
5 | O=C(NCc1cc(-c2cccc([C@](O)(C(=O)OCC3CCN(Cc4ccccc4)CC3)c3ccccc3)c2)cs1)c1ccc(CNC[C@H](O)c2ccc(O)c3[nH]c(=O)ccc23)cc1 [Compound 5, (1-Benzylpiperidin-4-yl)methyl (S)-2-hydroxy-2-(3-(5-((4-((((R)-2-hydroxy-2-(8-hydroxy-2-oxo-1,2-dihydroquinolin-5-yl)ethyl)amino)methyl)benzamido)methyl)-thiophen-3-yl)phenyl)-2-phenylacetate] | < 0.3 nM | 0.3 to 3 nM
6 | O=C(NCc1csc(-c2cccc([C@](O)(C(=O)OCC3CCN(Cc4ccccc4)CC3)c3ccccc3)c2)c1)c1ccc(CNC[C@H](O)c2ccc(O)c3[nH]c(=O)ccc23)cc1 [Compound 5A, (1-Benzylpiperidin-4-yl)methyl (S)-2-hydroxy-2-(3-(4-((4-((((R)-2-hydroxy-2-(8-hydroxy-2-oxo-1,2-dihydroquinolin-5-yl)ethyl)amino)methyl)-benzamido)methyl)thiophen-2-yl)phenyl)-2-phenylacetate] | < 0.3 nM | 0.3 to 3 nM
7 | O=C(NCc1cnc(-c2cccc([C@](O)(C(=O)OCC3CCN(Cc4ccccc4)CC3)c3ccccc3)c2)s1)c1ccc(CNC[C@H](O)c2ccc(O)c3[nH]c(=O)ccc23)cc1 [Compound 5B, (1-Benzylpiperidin-4-yl)methyl (S)-2-hydroxy-2-(3-(5-((4-((((R)-2-hydroxy-2-(8-hydroxy-2-oxo-1,2-dihydroquinolin-5-yl)ethyl)amino)methyl)-benzamido)methyl)thiazol-2-yl)phenyl)-2-phenylacetate] | < 0.3 nM | 0.3 to 3 nM
8 | O=C(c1ccc(CNC[C@H](O)c2ccc(O)c3[nH]c(=O)ccc23)cc1)N1CCc2sc(-c3cccc([C@](O)(C(=O)OCC4CCN(Cc5ccccc5)CC4)c4ccccc4)c3)cc2C1 [Compound 5C, (1-Benzylpiperidin-4-yl)methyl (S)-2-hydroxy-2-(3-(5-(4-((((R)-2-hydroxy-2-(8-hydroxy-2-oxo-1,2-dihydroquinolin-5-yl)ethyl)amino)methyl)benzoyl)-4,5,6,7-tetrahydrothieno[3,2-c]pyridin-2-yl)phenyl)-2-phenylacetate] | < 0.3 nM | 0.3 to 3 nM
9 | O=C(NCCc1ccc(-c2cccc([C@](O)(C(=O)OCC3CCN(Cc4ccccc4)CC3)c3ccccc3)c2)s1)c1ccc(CNC[C@H](O)c2ccc(O)c3[nH]c(=O)ccc23)cc1 [Compound 5D, (1-Benzylpiperidin-4-yl)methyl (S)-2-hydroxy-2-(3-(5-(2-(4-((((R)-2-hydroxy-2-(8-hydroxy-2-oxo-1,2-dihydroquinolin-5-yl)ethyl)amino)methyl)-benzamido)ethyl)thiophen-2-yl)phenyl)-2-phenylacetate] | < 0.3 nM | 0.3 to 3 nM
10 | COc1cc(C(=O)NCc2nccnc2-c2cccc([C@](O)(C(=O)OCC3CCN(Cc4ccccc4)CC3)c3ccccc3)c2)ccc1CNC[C@H](O)c1ccc(O)c2[nH]c(=O)ccc12 [Compound 5E, (1-Benzylpiperidin-4-yl)methyl (S)-2-hydroxy-2-(3-(3-((4-((((R)-2-hydroxy-2-(8-hydroxy-2-oxo-1,2-dihydroquinolin-5-yl)ethyl)amino)methyl)-3-methoxybenzamido)methyl)pyrazin-2-yl)phenyl)-2-phenylacetate] | < 0.3 nM | 0.3 to 3 nM
11 | O=C(c1ccnc(-c2cccc([C@](O)(C(=O)OCC3CCN(Cc4ccccc4)CC3)c3ccccc3)c2)c1)N1CCC(CNC[C@H](O)c2ccc(O)c3[nH]c(=O)ccc23)CC1 [Compound 6, (1-Benzylpiperidin-4-yl)methyl (S)-2-hydroxy-2-(3-(4-(4-((((R)-2-hydroxy-2-(8-hydroxy-2-oxo-1,2-dihydroquinolin-5-yl)ethyl)amino)methyl)piperidine-1-carbonyl)pyridin-2-yl)phenyl)-2-phenylacetate] | < 0.3 nM | 0.3 to 3 nM
12 | O=C(c1cncc(-c2cccc([C@](O)(C(=O)OCC3CCN(Cc4ccccc4)CC3)c3ccccc3)c2)n1)N1CCC(CNC[C@H](O)c2ccc(O)c3[nH]c(=O)ccc23)CC1 [Compound 6A, (1-Benzylpiperidin-4-yl)methyl (S)-2-hydroxy-2-(3-(6-(4-((((R)-2-hydroxy-2-(8-hydroxy-2-oxo-1,2-dihydroquinolin-5-yl)ethyl)amino)methyl)piperidine-1-carbonyl)pyrazin-2-yl)phenyl)-2-phenylacetate] | 0.3 to 3 nM | 0.3 to 3 nM
13 | O=C(c1cc(-c2cccc([C@](O)(C(=O)OCC3CCN(Cc4ccccc4)CC3)c3ccccc3)c2)ccn1)N1CCC(CNC[C@H](O)c2ccc(O)c3[nH]c(=O)ccc23)CC1 [Compound 6B, (1-Benzylpiperidin-4-yl)methyl (S)-2-hydroxy-2-(3-(2-(4-((((R)-2-hydroxy-2-(8-hydroxy-2-oxo-1,2-dihydroquinolin-5-yl)ethyl)amino)methyl)piperidine-1-carbonyl)pyridin-4-yl)phenyl)-2-phenylacetate] | < 0.3 nM | 0.3 to 3 nM

From patent publication US10196386B2, “Compounds having muscarinic receptor antagonist and beta2 adrenergic receptor agonist activity” (priority 2016, dated 2019)
